Measured values taken from patent US20100129434A1, “COMPOSITIONS AND METHODS FOR THE TREATMENT OF MUCORMYCOSIS AND OTHER FUNGAL DISEASES” (priority 2006, published 2010).
Converted amounts (≈) assume the structure as drawn. Like-named read-outs stand apart in the source and are kept apart here.

Test system: R. oryzae
Test: Deferasirox susceptibility testing (MIC/MFC), R. oryzae isolates
Assay type: cell-based, Rhizopus oryzae
Details: Rhizopus arrhizus; for MIC90: R. oryzae MIC90/MFC90
Method: Minimum inhibitory concentration (MIC) and minimum fungicidal concentration (MFC) were determined for deferasirox by the method of Espinel-Ingroff using R. oryzae spores starved for iron (Espinel-Ingroff, (2001), supra). Cidality was defined as a <4-fold difference between MIC and MFC.
We next determined the deferasirox susceptibilities of multiple clinical isolates of Mucorales (Table 3). The MIC9OS of deferasirox against Mucor, non-oryzae Rhizopus spp., and R. oryzae were 3.12 to 6.25 μg/ml. MFCs were similar to MICs, and deferasirox was cidal for 28/29 (97%) of isolates. Of note, slight growth was seen within the first twelve hours even at extremely high concentrations of deferasirox. […] Furthermore, the MICs and MFCs of deferasirox against these isolates were well below clinically achievable peak (˜38 μg/ml) and trough serum levels (˜17 μg/ml) of the drug at steady state when administered at the FDA-approved starting dose (20 mg/kg/d).

[1] = NRRL6059, 24 h, R. oryzae type I NRRL 6059, 24 h
[2] = NRRL6059, 48 h, R. oryzae type I NRRL 6059, 48 h
[3] = NRRL21409, 48 h, R. oryzae type I NRRL21409, 48 h

`O=C(O)c1ccc(-n2nc(-c3ccccc3O)nc2-c2ccccc2O)cc1` [Deferasirox, 4-[3,5-Bis(2-hydroxyphenyl)-1H-1,2,4-triazol-1-yl]-benzoic acid] showed an MFC (48 h, R. oryzae 729-02, 48 h, read-out: MFC) of 6.25 µg/mL (≈ 16.7 µM), an MIC (48 h, R. oryzae 729-02, 48 h, read-out: MIC) of 6.25 µg/mL (≈ 16.7 µM) and an MFC (48 h, R. oryzae HUMC 02, 48 h, read-out: MFC) of 1.56 µg/mL (≈ 4.18 µM). The MIC (48 h, R. oryzae HUMC 02, 48 h, read-out: MIC) was 1.56 µg/mL (≈ 4.18 µM), the MFC (48 h, R. oryzae pyr17 pyrG−/−, 48 h, read-out: MFC) was 0.78 µg/mL (≈ 2.09 µM) and the MIC (48 h, R. oryzae pyr17 pyrG−/−, 48 h, read-out: MIC) was 0.78 µg/mL (≈ 2.09 µM). For the same compound, the MFC (48 h, R. orzae type II 10206, 48 h, read-out: MFC) was 3.12 µg/mL (≈ 8.36 µM), the MIC (48 h, R. orzae type II 10206, 48 h, read-out: MIC) was 3.12 µg/mL (≈ 8.36 µM) and the MFC [1] was 6.25 µg/mL (≈ 16.7 µM). The MIC [1] was 6.15 µg/mL (≈ 16.5 µM), the MFC [2] was 6.25 µg/mL (≈ 16.7 µM) and the MIC [2] was 1.56 µg/mL (≈ 4.18 µM). The MFC (NRRL10206, 24 h, R. oryzae type I NRRL 10206, 24 h, read-out: MFC) was 3.12 µg/mL (≈ 8.36 µM), the MIC (NRRL10206, 24 h, R. oryzae type I NRRL 10206, 24 h, read-out: MIC) was 3.12 µg/mL (≈ 8.36 µM) and the MFC (NRRL10206, 48 h, R. oryzae type I NRRL 10206, 48 h, read-out: MFC) was 3.12 µg/mL (≈ 8.36 µM). The MIC (NRRL10206, 48 h, R. oryzae type I NRRL 10206, 48 h, read-out: MIC) was 3.12 µg/mL (≈ 8.36 µM), the MFC (NRRL11823, 24 h, R. oryzae type I NRRL11823, 24 h, read-out: MFC) was 3.12 µg/mL (≈ 8.36 µM) and the MIC (NRRL11823, 24 h, R. oryzae type I NRRL11823, 24 h, read-out: MIC) was 3.12 µg/mL (≈ 8.36 µM). It also gave an MFC (NRRL11823, 48 h, R. oryzae type I NRRL11823, 48 h, read-out: MFC) of 6.25 µg/mL (≈ 16.7 µM), an MIC (NRRL11823, 48 h, R. oryzae type I NRRL11823, 48 h, read-out: MIC) of 6.25 µg/mL (≈ 16.7 µM) and an MFC (NRRL13142, 24 h, R. oryzae type I NRRL13142, 24 h, read-out: MFC) of 6.25 µg/mL (≈ 16.7 µM). It also gave an MIC (NRRL13142, 24 h, R. oryzae type I NRRL13142, 24 h, read-out: MIC) of 6.25 µg/mL (≈ 16.7 µM), an MFC (NRRL13142, 48 h, R. oryzae type I NRRL13142, 48 h, read-out: MFC) of 3.12 µg/mL (≈ 8.36 µM) and an MIC (NRRL13142, 48 h, R. oryzae type I NRRL13142, 48 h, read-out: MIC) of 3.12 µg/mL (≈ 8.36 µM). For the same compound, the MFC (NRRL13440, 24 h, R. oryzae type 1 NRRL13440, 24 h, read-out: MFC) was 12.5 µg/mL (≈ 33.5 µM), the MIC (NRRL13440, 24 h, R. oryzae type 1 NRRL13440, 24 h, read-out: MIC) was 1.56 µg/mL (≈ 4.18 µM) and the MFC (NRRL13440, 48 h, R. oryzae type 1 NRRL13440, 48 h, read-out: MFC) was 12.5 µg/mL (≈ 33.5 µM). For the same compound, the MIC (NRRL13440, 48 h, R. oryzae type 1 NRRL13440, 48 h, read-out: MIC) was 1.56 µg/mL (≈ 4.18 µM), the MFC (NRRL13533, 24 h, R. oryzae type I NRRL13533, 24 h, read-out: MFC) was 6.25 µg/mL (≈ 16.7 µM) and the MIC (NRRL13533, 24 h, R. oryzae type I NRRL13533, 24 h, read-out: MIC) was 1.56 µg/mL (≈ 4.18 µM). It also gave an MFC (NRRL13533, 48 h, R. oryzae type I NRRL13533, 48 h, read-out: MFC) of 6.25 µg/mL (≈ 16.7 µM), an MIC (NRRL13533, 48 h, R. oryzae type I NRRL13533, 48 h, read-out: MIC) of 1.56 µg/mL (≈ 4.18 µM) and an MFC (NRRL18148, 24 h, R. oryzae type II NRRL 18148, 24 h, read-out: MFC) of 0.78 µg/mL (≈ 2.09 µM). It also gave an MIC (NRRL18148, 24 h, R. oryzae type II NRRL 18148, 24 h, read-out: MIC) of 0.78 µg/mL (≈ 2.09 µM), an MFC (NRRL18148, 48 h, R. oryzae type II NRRL 18148, 48 h, read-out: MFC) of 0.78 µg/mL (≈ 2.09 µM) and an MIC (NRRL18148, 48 h, R. oryzae type II NRRL 18148, 48 h, read-out: MIC) of 0.78 µg/mL (≈ 2.09 µM). The MFC (NRRL21251, 24 h, R. oryzae type I NRRL 21251, 24 h, read-out: MFC) was 6.25 µg/mL (≈ 16.7 µM), the MIC (NRRL21251, 24 h, R. oryzae type I NRRL 21251, 24 h, read-out: MIC) was 3.12 µg/mL (≈ 8.36 µM) and the MFC (NRRL21251, 48 h, R. oryzae type I NRRL 21251, 48 h, read-out: MFC) was 6.25 µg/mL (≈ 16.7 µM). For the same compound, the MIC (NRRL21251, 48 h, R. oryzae type I NRRL 21251, 48 h, read-out: MIC) was 6.25 µg/mL (≈ 16.7 µM), the MFC (NRRL21396, 24 h, R. oryzae type I NRRL21396, 24 h, read-out: MFC) was 12.5 µg/mL (≈ 33.5 µM) and the MIC (NRRL21396, 24 h, R. oryzae type I NRRL21396, 24 h, read-out: MIC) was 12.5 µg/mL (≈ 33.5 µM). It also gave an MFC (NRRL21396, 48 h, R. oryzae type I NRRL21396, 48 h, read-out: MFC) of 6.25 µg/mL (≈ 16.7 µM), an MIC (NRRL21396, 48 h, R. oryzae type I NRRL21396, 48 h, read-out: MIC) of 1.56 µg/mL (≈ 4.18 µM) and an MFC [3] of 1.56 µg/mL (≈ 4.18 µM). For the same compound, the MIC [3] was 1.56 µg/mL (≈ 4.18 µM), the MFC (NRRL21446, 24 h, R. oryzae type II NRRL 21446, 24 h, read-out: MFC) was 12.5 µg/mL (≈ 33.5 µM) and the MIC (NRRL21446, 24 h, R. oryzae type II NRRL 21446, 24 h, read-out: MIC) was 6.25 µg/mL (≈ 16.7 µM). For the same compound, the MFC (NRRL21446, 48 h, R. oryzae type II NRRL 21446, 48 h, read-out: MFC) was 6.25 µg/mL (≈ 16.7 µM), the MIC (NRRL21446, 48 h, R. oryzae type II NRRL 21446, 48 h, read-out: MIC) was 6.25 µg/mL (≈ 16.7 µM) and the MFC (NRRL21447, 24 h, R. oryzae type II NRRL 21447, 24 h, read-out: MFC) was 12.5 µg/mL (≈ 33.5 µM). It also gave an MIC (NRRL21447, 24 h, R. oryzae type II NRRL 21447, 24 h, read-out: MIC) of 6.25 µg/mL (≈ 16.7 µM), an MFC (NRRL21447, 48 h, R. oryzae type II NRRL 21447, 48 h, read-out: MFC) of 6.25 µg/mL (≈ 16.7 µM) and an MIC (NRRL21447, 48 h, R. oryzae type II NRRL 21447, 48 h, read-out: MIC) of 6.25 µg/mL (≈ 16.7 µM). It also gave an MFC (NRRL21477, 24 h, R. oryzae type II NRRL 21477, 24 h, read-out: MFC) of 1.56 µg/mL (≈ 4.18 µM), an MIC (NRRL21477, 24 h, R. oryzae type II NRRL 21477, 24 h, read-out: MIC) of 1.56 µg/mL (≈ 4.18 µM) and an MFC (NRRL21477, 48 h, R. oryzae type II NRRL 21477, 48 h, read-out: MFC) of 1.56 µg/mL (≈ 4.18 µM). For the same compound, the MIC (NRRL21477, 48 h, R. oryzae type II NRRL 21477, 48 h, read-out: MIC) was 1.56 µg/mL (≈ 4.18 µM), the MFC (NRRL21628, 24 h, R. oryzae type II NRRL 21628, 24 h, read-out: MFC) was 0.78 µg/mL (≈ 2.09 µM) and the MIC (NRRL21628, 24 h, R. oryzae type II NRRL 21628, 24 h, read-out: MIC) was 0.78 µg/mL (≈ 2.09 µM). The MFC (NRRL21628, 48 h, R. oryzae type II NRRL 21628, 48 h, read-out: MFC) was 0.78 µg/mL (≈ 2.09 µM), the MIC (NRRL21628, 48 h, R. oryzae type II NRRL 21628, 48 h, read-out: MIC) was 0.78 µg/mL (≈ 2.09 µM) and the MFC (NRRL21789, 24 h, R. oryzae type II NRRL 21789, 24 h, read-out: MFC) was 0.39 µg/mL (≈ 1.04 µM). The MIC (NRRL21789, 24 h, R. oryzae type II NRRL 21789, 24 h, read-out: MIC) was 0.39 µg/mL (≈ 1.04 µM), the MFC (NRRL21789, 48 h, R. oryzae type II NRRL 21789, 48 h, read-out: MFC) was 0.39 µg/mL (≈ 1.04 µM) and the MIC (NRRL21789, 48 h, R. oryzae type II NRRL 21789, 48 h, read-out: MIC) was 0.39 µg/mL (≈ 1.04 µM). The MIC90 (24 h) was 12.5 µg/mL (≈ 33.5 µM) and the MIC90 (48 h) was 6.25 µg/mL (≈ 16.7 µM).
